Article PMC7068705 (2019)

Tests used:
[1] = tested on: MGSA (RNA, aptamer) GGAUCCCGACUGGCGAGAGCCAGGUAACGAAUGGAUCCACACACACACACACACACACGCAUGCAUACCGACCAGAAUCAUGCAAGUGCGUAAGAUAGUCGCGGGCCGGGAUGCAUGC; assay: fluorogen fluorescence on RNA array; conditions: 20 mM NaCl, 6 mM MgCl2; 40 mM Tris-HCl pH 7.8, room temperature, 2 h; 40 µM malachite green; immobilised RNA
[2] = tested on: SpinachSA (RNA, aptamer) GGGGACGCGACUGAAUGAAAUGGUGAAGGACGGGUCCAGGUGUGGCUGCUUCGGCAGUGCAGCUUGUUGAGUAGAGUGUGAGCUCCGUAACUAGUCGCGUCUUUUUUUUUUUUUUUUUUCGAUCGAUACCGACCAGAAUCAUGCAAGUGCGUAAGAUAGUCGCGGGCCGGGAUCGAUCG; assay: fluorogen fluorescence on RNA array, in situ during transcription; conditions: 1X MEGAscript T7 transcription buffer, 37 °C, 90 min; 152 µM DFHBI; immobilised RNA

binding [1] | binding [2] | SMILES
yes |  | CN(C)c1ccc(C(=C2C=CC(=[N+](C)C)C=C2)c2ccccc2)cc1
 | yes | CC1=N/C(=C\c2cc(F)c(O)c(F)c2)C(=O)N1C
